Assay results as given in US11767310B2, “Nicotinamide RIPK1 inhibitors” (AbbVie Inc., priority 2021, dated 2023).
Like-named read-outs stand apart in the source and are kept apart here.

Experiments:
Assay in all cases: Kinase binding screen
Details in all cases: read-out: Percent Control at 100 nM Compound Concentration
BRK = BRK (Homo sapiens (Human), UniProt Q13882)
CAMK1 = CAMK1 (Homo sapiens (Human), UniProt Q14012)
CAMK2A = CAMK2A (Homo sapiens (Human), UniProt Q9UQM7)
CDK3 = CDK3 (Homo sapiens (Human), UniProt Q00526)
Chain of CDK3 (Q00526 whole entry): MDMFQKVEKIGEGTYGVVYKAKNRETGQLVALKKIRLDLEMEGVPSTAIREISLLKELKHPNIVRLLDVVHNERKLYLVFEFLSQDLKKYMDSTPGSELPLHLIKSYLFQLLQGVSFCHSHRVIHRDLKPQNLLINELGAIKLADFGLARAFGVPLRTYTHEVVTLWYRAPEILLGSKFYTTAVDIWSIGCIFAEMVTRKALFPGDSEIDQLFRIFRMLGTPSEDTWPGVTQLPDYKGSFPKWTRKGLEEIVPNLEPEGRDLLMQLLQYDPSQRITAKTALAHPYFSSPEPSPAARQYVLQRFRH

CLK1 = CLK1 (Homo sapiens (Human), UniProt P49759)
CSF1R-autoinhibited = CSF1R-autoinhibited (Homo sapiens (Human), UniProt P07333)
DYRK2 = DYRK2 (Homo sapiens (Human), UniProt Q92630)
Chain of DYRK2 (Q92630 whole entry): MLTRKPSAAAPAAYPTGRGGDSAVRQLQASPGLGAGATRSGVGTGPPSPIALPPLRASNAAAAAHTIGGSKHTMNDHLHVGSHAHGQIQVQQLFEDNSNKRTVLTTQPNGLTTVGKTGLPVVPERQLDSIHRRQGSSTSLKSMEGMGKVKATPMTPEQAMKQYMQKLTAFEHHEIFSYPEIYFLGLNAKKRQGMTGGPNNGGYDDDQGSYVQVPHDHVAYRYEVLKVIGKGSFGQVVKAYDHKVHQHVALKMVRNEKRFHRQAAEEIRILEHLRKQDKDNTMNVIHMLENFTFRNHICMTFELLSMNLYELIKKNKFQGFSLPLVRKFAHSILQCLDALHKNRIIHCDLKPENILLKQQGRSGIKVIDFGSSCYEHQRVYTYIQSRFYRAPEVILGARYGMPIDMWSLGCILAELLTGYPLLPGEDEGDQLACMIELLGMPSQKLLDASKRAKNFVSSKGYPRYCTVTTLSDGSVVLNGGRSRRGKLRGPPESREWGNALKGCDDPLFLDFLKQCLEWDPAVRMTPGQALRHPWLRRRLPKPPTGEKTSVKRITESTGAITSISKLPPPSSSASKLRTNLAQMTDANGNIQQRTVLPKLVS

EGFR(G719C) = EGFR(G719C) (Homo sapiens (Human), UniProt P00533, G719C)
ERK3 = ERK3 (Homo sapiens (Human), UniProt Q16659)
FLT3 = FLT3 (Homo sapiens (Human), UniProt P36888)
Chain of FLT3 (P36888 27-993): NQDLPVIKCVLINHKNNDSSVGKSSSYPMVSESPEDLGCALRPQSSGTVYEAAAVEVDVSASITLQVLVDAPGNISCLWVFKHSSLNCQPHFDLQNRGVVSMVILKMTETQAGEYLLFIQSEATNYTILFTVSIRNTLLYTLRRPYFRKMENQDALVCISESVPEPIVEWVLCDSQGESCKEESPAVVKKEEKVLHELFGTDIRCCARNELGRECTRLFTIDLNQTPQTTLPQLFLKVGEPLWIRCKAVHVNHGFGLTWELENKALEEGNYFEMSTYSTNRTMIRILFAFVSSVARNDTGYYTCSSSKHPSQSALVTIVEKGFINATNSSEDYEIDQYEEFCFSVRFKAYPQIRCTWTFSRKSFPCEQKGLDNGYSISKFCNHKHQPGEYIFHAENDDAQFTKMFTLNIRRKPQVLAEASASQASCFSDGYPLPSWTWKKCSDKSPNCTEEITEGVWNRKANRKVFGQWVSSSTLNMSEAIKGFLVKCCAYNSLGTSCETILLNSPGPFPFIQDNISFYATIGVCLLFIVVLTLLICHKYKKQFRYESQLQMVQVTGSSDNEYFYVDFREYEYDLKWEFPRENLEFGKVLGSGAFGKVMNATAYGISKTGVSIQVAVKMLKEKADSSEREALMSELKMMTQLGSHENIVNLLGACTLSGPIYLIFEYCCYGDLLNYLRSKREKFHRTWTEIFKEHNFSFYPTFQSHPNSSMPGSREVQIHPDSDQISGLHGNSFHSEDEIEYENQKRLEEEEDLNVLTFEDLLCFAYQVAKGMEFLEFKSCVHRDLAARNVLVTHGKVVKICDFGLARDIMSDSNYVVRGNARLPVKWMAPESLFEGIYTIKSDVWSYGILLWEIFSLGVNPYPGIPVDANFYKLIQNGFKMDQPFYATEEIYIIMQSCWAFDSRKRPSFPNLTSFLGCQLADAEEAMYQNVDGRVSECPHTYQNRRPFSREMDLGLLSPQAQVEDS

HIPK4 = HIPK4 (Homo sapiens (Human), UniProt Q8NE63)
JNK2 = JNK2 (Homo sapiens (Human), UniProt P45984)
LZK = LZK (Homo sapiens (Human), UniProt O43283)
MAP4K2 = MAP4K2 (Homo sapiens (Human), UniProt Q12851)
Chain of MAP4K2 (Q12851 whole entry): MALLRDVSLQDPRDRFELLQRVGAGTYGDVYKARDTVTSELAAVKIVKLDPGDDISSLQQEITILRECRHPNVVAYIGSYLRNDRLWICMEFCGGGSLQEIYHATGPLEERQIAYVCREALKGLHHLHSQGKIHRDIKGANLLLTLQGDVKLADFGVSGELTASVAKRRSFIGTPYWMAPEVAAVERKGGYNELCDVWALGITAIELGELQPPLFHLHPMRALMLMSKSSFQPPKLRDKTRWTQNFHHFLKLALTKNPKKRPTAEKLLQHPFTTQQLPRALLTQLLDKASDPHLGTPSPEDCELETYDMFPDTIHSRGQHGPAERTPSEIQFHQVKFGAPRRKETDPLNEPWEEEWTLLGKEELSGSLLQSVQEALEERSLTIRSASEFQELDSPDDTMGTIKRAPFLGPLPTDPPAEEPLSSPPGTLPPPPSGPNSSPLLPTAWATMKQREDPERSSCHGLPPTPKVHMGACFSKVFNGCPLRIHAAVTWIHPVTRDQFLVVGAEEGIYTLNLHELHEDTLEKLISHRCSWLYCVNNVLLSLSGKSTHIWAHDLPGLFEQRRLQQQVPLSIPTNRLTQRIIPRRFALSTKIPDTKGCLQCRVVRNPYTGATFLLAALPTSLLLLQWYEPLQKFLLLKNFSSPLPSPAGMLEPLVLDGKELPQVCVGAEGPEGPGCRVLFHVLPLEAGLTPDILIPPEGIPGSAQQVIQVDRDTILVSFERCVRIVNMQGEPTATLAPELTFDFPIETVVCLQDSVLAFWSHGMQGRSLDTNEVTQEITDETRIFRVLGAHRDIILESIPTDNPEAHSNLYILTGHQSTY

MARK1 = MARK1 (Homo sapiens (Human), UniProt Q9P0L2)
MET(M1250T) = MET(M1250T) (Homo sapiens (Human), UniProt P08581, M1250T)
MYLK4 = MYLK4 (Homo sapiens (Human), UniProt Q86YV6)
NDR2 = NDR2 (Homo sapiens (Human), UniProt Q9Y2H1)
NEK11 = NEK11 (Homo sapiens (Human), UniProt Q8NG66)
p38-alpha = p38-alpha (Homo sapiens (Human), UniProt Q16539)
PCTK1 = PCTK1 (Homo sapiens (Human), UniProt Q00536)
PIP5K2B = PIP5K2B (Homo sapiens (Human), UniProt P78356)
PKAC-alpha = PKAC-alpha (Homo sapiens (Human), UniProt P17612)
[1] = biological target: RPS6KA5(Kin.Dom.1-N-terminal) (Homo sapiens (Human), UniProt O75582)
[2] = biological target: RSK1(Kin.Dom.2-C-terminal) (Homo sapiens (Human), UniProt Q15418)
SRPK3 = SRPK3 (Homo sapiens (Human), UniProt Q9UPE1)
TAK1 = TAK1 (Homo sapiens (Human), UniProt O43318)
TRKC = TRKC (Homo sapiens (Human), UniProt Q16288)
Chain of TRKC (Q16288 32-839): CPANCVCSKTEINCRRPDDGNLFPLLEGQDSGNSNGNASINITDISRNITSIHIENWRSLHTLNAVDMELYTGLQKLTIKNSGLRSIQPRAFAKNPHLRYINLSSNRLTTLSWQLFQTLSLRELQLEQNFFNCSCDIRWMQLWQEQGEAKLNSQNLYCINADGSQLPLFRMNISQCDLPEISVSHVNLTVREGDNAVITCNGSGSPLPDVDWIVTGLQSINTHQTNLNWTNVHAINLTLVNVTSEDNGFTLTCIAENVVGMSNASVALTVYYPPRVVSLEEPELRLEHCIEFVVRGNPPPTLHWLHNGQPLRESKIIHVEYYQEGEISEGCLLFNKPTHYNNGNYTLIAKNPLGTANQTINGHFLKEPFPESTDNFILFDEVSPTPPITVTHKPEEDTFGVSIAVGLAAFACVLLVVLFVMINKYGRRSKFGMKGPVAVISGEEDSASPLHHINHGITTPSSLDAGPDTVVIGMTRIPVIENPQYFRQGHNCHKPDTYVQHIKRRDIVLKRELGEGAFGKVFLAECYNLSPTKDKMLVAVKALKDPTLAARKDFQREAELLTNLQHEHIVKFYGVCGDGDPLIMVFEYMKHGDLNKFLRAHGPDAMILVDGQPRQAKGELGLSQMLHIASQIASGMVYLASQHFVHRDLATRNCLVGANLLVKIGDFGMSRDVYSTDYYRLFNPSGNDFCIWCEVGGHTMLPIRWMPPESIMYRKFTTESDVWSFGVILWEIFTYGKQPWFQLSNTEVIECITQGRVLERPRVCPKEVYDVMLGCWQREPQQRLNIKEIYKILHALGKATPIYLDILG

YANK3 = YANK3 (Homo sapiens (Human), UniProt Q86UX6)
Chain of YANK3 (Q86UX6 whole entry): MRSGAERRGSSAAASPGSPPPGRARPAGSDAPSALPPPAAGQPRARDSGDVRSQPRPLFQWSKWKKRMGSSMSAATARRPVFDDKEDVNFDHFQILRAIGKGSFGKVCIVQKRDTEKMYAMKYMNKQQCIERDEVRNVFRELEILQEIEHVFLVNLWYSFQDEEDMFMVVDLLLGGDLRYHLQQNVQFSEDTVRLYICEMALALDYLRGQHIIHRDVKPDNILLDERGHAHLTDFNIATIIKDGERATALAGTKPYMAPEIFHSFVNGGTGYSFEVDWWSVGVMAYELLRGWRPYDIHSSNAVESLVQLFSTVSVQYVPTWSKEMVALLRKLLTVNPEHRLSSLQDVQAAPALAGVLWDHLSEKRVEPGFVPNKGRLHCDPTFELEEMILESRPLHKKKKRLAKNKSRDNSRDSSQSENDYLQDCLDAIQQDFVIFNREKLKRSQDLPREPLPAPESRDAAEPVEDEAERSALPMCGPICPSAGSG

Chain of CAMK2A (Q9UQM7 whole entry): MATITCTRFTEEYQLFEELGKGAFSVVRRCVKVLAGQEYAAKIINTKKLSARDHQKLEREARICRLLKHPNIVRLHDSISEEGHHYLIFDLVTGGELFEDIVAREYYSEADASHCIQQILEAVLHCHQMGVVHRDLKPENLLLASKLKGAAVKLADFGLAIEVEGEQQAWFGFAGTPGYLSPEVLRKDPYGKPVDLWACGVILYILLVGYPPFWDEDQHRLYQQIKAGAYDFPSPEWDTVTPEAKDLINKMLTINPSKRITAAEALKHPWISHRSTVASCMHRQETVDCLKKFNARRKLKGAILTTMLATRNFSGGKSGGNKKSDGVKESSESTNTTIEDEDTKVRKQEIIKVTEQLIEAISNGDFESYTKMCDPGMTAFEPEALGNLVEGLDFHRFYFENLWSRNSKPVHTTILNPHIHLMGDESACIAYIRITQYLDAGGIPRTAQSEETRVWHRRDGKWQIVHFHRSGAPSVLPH
Chain of BRK (Q13882 whole entry): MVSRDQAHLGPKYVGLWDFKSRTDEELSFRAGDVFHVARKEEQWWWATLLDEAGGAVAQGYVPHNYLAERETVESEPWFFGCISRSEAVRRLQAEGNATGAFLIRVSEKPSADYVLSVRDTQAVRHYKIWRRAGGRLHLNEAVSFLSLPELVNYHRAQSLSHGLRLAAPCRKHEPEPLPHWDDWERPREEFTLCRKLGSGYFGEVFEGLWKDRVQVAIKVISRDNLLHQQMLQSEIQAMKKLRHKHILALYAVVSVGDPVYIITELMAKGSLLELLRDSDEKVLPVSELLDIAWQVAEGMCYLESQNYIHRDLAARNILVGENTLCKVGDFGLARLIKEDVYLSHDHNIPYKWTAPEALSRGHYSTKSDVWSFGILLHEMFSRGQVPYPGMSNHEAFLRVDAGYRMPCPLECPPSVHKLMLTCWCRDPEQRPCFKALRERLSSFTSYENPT

Compound: CN(C[C@@H](O)Cc1ccccc1)C(=O)c1cncc(C#Cc2cnn(C(F)F)c2)c1 [Example 2, (S)-5-((1-(difluoromethyl)-1H-pyrazol-4-yl)ethynyl)-N-(2-hydroxy-3-phenylpropyl)-N-methylnicotinamide]
- remaining activity at 0.1 µM (BRK; BRK): 100%
- remaining activity at 0.1 µM (CAMK1; CAMK1): 100%
- remaining activity at 0.1 µM (CAMK2A; CAMK2A): 97%
- remaining activity at 0.1 µM (CDK3; CDK3): 100%
- remaining activity at 0.1 µM (CLK1; CLK1): 100%
- remaining activity at 0.1 µM (CSF1R-autoinhibited; CSF1R-autoinhibited): 99%
- remaining activity at 0.1 µM (DYRK2; DYRK2): 100%
- remaining activity at 0.1 µM (EGFR(G719C); EGFR(G719C)): 100%
- remaining activity at 0.1 µM (ERK3; ERK3): 100%
- remaining activity at 0.1 µM (FLT3; FLT3): 100%
- remaining activity at 0.1 µM (HIPK4; HIPK4): 100%
- remaining activity at 0.1 µM (JNK2; JNK2): 91%
- remaining activity at 0.1 µM (LZK; LZK): 99%
- remaining activity at 0.1 µM (MAP4K2; MAP4K2): 88%
- remaining activity at 0.1 µM (MARK1; MARK1): 100%
- remaining activity at 0.1 µM (MET(M1250T); MET(M1250T)): 100%
- remaining activity at 0.1 µM (MYLK4; MYLK4): 99%
- remaining activity at 0.1 µM (NDR2; NDR2): 94%
- remaining activity at 0.1 µM (NEK11; NEK11): 100%
- remaining activity at 0.1 µM (p38-alpha; p38-alpha): 100%
- remaining activity at 0.1 µM (PCTK1; PCTK1): 91%
- remaining activity at 0.1 µM (PIP5K2B; PIP5K2B): 100%
- remaining activity at 0.1 µM (PKAC-alpha; PKAC-alpha): 94%
- remaining activity at 0.1 µM ([1]; RPS6KA5(Kin.Dom.1-N-terminal)): 91%
- remaining activity at 0.1 µM ([2]; RSK1(Kin.Dom.2-C-terminal)): 100%
- remaining activity at 0.1 µM (SRPK3; SRPK3): 90%
- remaining activity at 0.1 µM (TAK1; TAK1): 97%
- remaining activity at 0.1 µM (TRKC; TRKC): 100%
- remaining activity at 0.1 µM (YANK3; YANK3): 67%

Compound: CN(C[C@H](Cc1ccccc1)OP(=O)(O)O)C(=O)c1cncc(C#Cc2cnn(C(F)F)c2)c1 [Example 19, (S)-1-(5-((1-(difluoromethyl)-1H-pyrazol-4-yl)ethynyl)-N-methylnicotinamido)-3-phenylpropan-2-yl dihydrogen phosphate]
- remaining activity at 0.1 µM (BRK): 100%
- remaining activity at 0.1 µM (CAMK1): 62%
- remaining activity at 0.1 µM (CAMK2A): 100%
- remaining activity at 0.1 µM (CDK3): 100%
- remaining activity at 0.1 µM (CLK1): 100%
- remaining activity at 0.1 µM (CSF1R-autoinhibited): 99%
- remaining activity at 0.1 µM (DYRK2): 97%
- remaining activity at 0.1 µM (EGFR(G719C)): 77%
- remaining activity at 0.1 µM (ERK3): 100%
- remaining activity at 0.1 µM (FLT3): 100%
- remaining activity at 0.1 µM (HIPK4): 100%
- remaining activity at 0.1 µM (JNK2): 92%
- remaining activity at 0.1 µM (LZK): 99%
- remaining activity at 0.1 µM (MAP4K2): 83%
- remaining activity at 0.1 µM (MARK1): 96%
- remaining activity at 0.1 µM (MET(M1250T)): 100%
- remaining activity at 0.1 µM (MYLK4): 100%
- remaining activity at 0.1 µM (NDR2): 84%
- remaining activity at 0.1 µM (NEK11): 95%
- remaining activity at 0.1 µM (p38-alpha): 100%
- remaining activity at 0.1 µM (PCTK1): 84%
- remaining activity at 0.1 µM (PIP5K2B): 95%
- remaining activity at 0.1 µM (PKAC-alpha): 94%
- remaining activity at 0.1 µM [1]: 100%
- remaining activity at 0.1 µM [2]: 100%
- remaining activity at 0.1 µM (SRPK3): 100%
- remaining activity at 0.1 µM (TAK1): 95%
- remaining activity at 0.1 µM (TRKC): 68%
- remaining activity at 0.1 µM (YANK3): 54%
